Where a name gives a salt, the structure may show the parent alone.
Tests used:
[1] = tested on: A(H1N1)pdm09 influenza virus A/Jena/8178/09; test: Inhibition of Jena/8178 replication (yield, spread) by NAI in A549 cells, without pneumococcal NA; format: cell-based; details: 48 h after infection, untreated control = 100%
Experimental: (§1) Confluent MDCK and A549 cells were mock-infected with test medium or infected with Jena/8178 (0.1 TCID50/cell) for 1 h (37°C; 5% CO2). After three washing steps with test medium, test medium or various rNanA or rNanB dilutions (1:100 to 1:1,000,000) were added. After 48 h at 37°C the supernatant was taken and stored at –20°C until plaque titer determination (virus yield analysis). The remaining cells were fixed with ice-cold methanol for 20 min and stored after washing with PBS in PBS at 4°C until immunocytochemical staining (virus spread analysis).
(§2) To determine the virus yield in collected supernatants, plaque assays were conducted on confluent MDCK cells grown in 12-well tissue culture plates (Greiner Bio-One GmbH). Briefly, after virus adsorption (37°C; 1 h), inoculum was replaced by 1 mL test medium containing also 0.4% agarose and 50 mM magnesium chloride (VEB Laborchemikalien, Apolda, Germany). After 48 h of incubation at 37°C, cells were fixed and stained with a solution of 0.4% crystal violet in a mixture of formalin (3% v/v) and ethanol (1.67% v/v) in water overnight. Plaques were counted over a light box after removal of the agar overlay.
(§3) Virus spread was analyzed by detecting viral nucleoprotein with a monoclonal antibody (Acris GmbH, Hiddenhausen, Germany) by immunocytochemical staining according to the manufacturers protocol (DAKO, Hamburg, Germany; [Bauer et al., 2007]).
(§4) The inhibitory effect of the NAI on Jena/8178 (inhibition of virus yield and spread) was determined in absence and presence of rNanA or rNanB in A549 cells.
(§5) ^a The plaque titer of untreated control (influenzavirus A/Jena/8178/09) reached in A549 cells (48 h after infection) in the absence and presence of rNanA or rNanB was set as 100% virus yield. It was used to calculate the percentage of virus yield after NAI treatment. Mean and standard deviations were calculated of at least three assays with two replicates.

rNanB [2] = molecular target: T1, rNanB (Streptococcus pneumoniae serotype 4, UniProt Q54727); test: HA assay (hemagglutination of NA-treated human erythrocytes with peanut lectin), inhibition of rNanB; format: biochemical, Streptococcus pneumoniae DSM20566; details: 1 h incubation
T1 construct: encodes a C-terminal 6xHis-tagged NanB in size of 699 amino acid residues; 6xHis (C); made in house; host or cells: E. coli (vector pET-28a, plasmid pTNB20566)
Experimental: (§6) The NAI susceptibility of rNanA and rNanB was evaluated with FL assay (rNanA and rNanB diluted 1:10,000 in FL buffer; pH 6.5) and HA assay as published recently ([Richter et al., 2015]) with slight modification of the HA assay. For stability reasons, rNanA and rNanB were diluted 1:5,000 in phosphate buffered saline (PBS) containing 100 μg/mL bovine serum albumin and stored at –20°C until use. The incubation period of the recombinant proteins with the human erythrocytes was only 1 h. At least three individual experiments were performed.

rNanB [3] = molecular target: T1, rNanB; test: FL assay (MUNANA), inhibition of rNanB; format: biochemical, Streptococcus pneumoniae DSM20566; details: for Inhibitory Concentration of NAIs against rNanB, FL assay: rNanB diluted 1:10,000, pH 6.5, MUNANA substrate
Experimental: (§7) Activity of 10-fold dilutions (1:1,000 to 1:100,000) of rNanA and rNanB was determined with a fluorescence-based NA assay (FL assay) using the substrate 2-(4-methylumbelliferyl)-α-D-N-acetylneuraminic acid sodium salt hydrate (MUNANA, Sigma–Aldrich GmbH) as published ([Richter et al., 2015]). The activity of rNanB was additionally tested at pH 5. Relative FL units (RFU) were read using the microplate reader FLUOstar Omega (BMG Labtech GmbH, Ortenberg, Germany) and converted to 4-MU concentration (Sigma–Aldrich GmbH) according to the 4-MU standard curve (Supplementary Figure 1). Velocity (μM/min) and Km value (μM) for rNanA and rNanB were determined using eight MUNANA concentrations (3.13 to 400 μM) at pH 6.5. After 5 min the reaction was stopped, RFU were measured and converted to 4-MU concentrations according to the 4-MU standard curve. The Enzyme Kinetics Module of SigmaPlot 12.0 (Systat Software, San Jose, CA, USA) was applied to fit the data to the Michaelis–Menten equation using non-linear regression.
as §6

[4] = tested on: A(H1N1)pdm09 influenza virus A/Jena/8178/09; test: Inhibition of Jena/8178 replication (yield, spread) by NAI in A549 cells in presence of rNanB; format: cell-based; details: 48 h after infection, rNanB 1:10,000, untreated control = 100%
Experimental: as §1, §2, §3, §4, §5

rNanA [5] = molecular target: T2, rNanA (Streptococcus pneumoniae, UniProt P62575); test: HA assay (hemagglutination of NA-treated human erythrocytes with peanut lectin), inhibition of rNanA; format: biochemical, Streptococcus pneumoniae DSM20566; details: 1 h incubation
T2 construct: made in house; host or cells: E. coli
Experimental: Neuraminidase activity of both NAs was further confirmed based on hemagglutination of NA-treated human erythrocytes in the presence of peanut lectin (HA assay) as described recently ([Richter et al., 2015]; [Walther et al., 2015]).
as §6

rNanA [6] = molecular target: T2, rNanA; test: FL assay (MUNANA), inhibition of rNanA; format: biochemical, Streptococcus pneumoniae DSM20566
Experimental: as §7, §6

[7] = tested on: A(H1N1)pdm09 influenza virus A/Jena/8178/09; test: Inhibition of Jena/8178 replication (yield, spread) by NAI in A549 cells in presence of rNanA; format: cell-based; details: for spread and yield of the virus in the presence of NanA: oseltamivir at 1 μM; for Percentage of Virus Yield after NAI Treatment, with rNanA: 48 h after infection, rNanA 1:10,000, untreated control = 100%
Experimental: as §1, §2, §3, §4, §5

[8] = molecular target: Influenza Virus A/Jena/8178/09 Neuraminidase (Influenza A virus (A/Jena/8178/2009(H1N1)), UniProt A0A088CA11); test: FL assay, inhibition of viral neuraminidase; format: biochemical; details: A/Jena/8178/09 NA; maximum tested concentration 100 μM; read-out: Inhibitory Concentration of NAIs, FL Assay (mean IC50)
rNanB [9] = tested on: T3, rNanB; test: Fluorescence-based NA assay with eight MUNANA concentrations (3.13 to 400 uM) at pH 6.5, enzymes diluted 1:10,000, stopped after 5 min, 4-MU release fitted to the Michaelis-Menten equation by non-linear regression.; format: biochemical; details: n = 3
T3 construct: recombinant, expressed in E. coli from pET-28a (pTNB20566); C-terminal 6xHis tag; 699 amino acid residues
Experimental: as §7
(§8) Both rNanA and rNanB were expressed in E. coli and their activity was confirmed by the FL assay at pH 5 (for rNanB only) and pH 6.5 (for both rNanA and rNanB). […] Activities of both recombinant S. pneumoniae NAs were further confirmed under more physiological conditions in a hemagglutination assay (HA assay; [Richter et al., 2015]). […]

[10] = tested on: CC(=O)N[C@H]1[C@H]([C@H](O)[C@H](O)CO)O[C@@](Oc2ccc3c(C)cc(=O)oc3c2)(C(=O)O)C[C@@H]1O; test: as above; format: biochemical
Experimental: as §7, §8

T1 sequence (Q54727 30-697): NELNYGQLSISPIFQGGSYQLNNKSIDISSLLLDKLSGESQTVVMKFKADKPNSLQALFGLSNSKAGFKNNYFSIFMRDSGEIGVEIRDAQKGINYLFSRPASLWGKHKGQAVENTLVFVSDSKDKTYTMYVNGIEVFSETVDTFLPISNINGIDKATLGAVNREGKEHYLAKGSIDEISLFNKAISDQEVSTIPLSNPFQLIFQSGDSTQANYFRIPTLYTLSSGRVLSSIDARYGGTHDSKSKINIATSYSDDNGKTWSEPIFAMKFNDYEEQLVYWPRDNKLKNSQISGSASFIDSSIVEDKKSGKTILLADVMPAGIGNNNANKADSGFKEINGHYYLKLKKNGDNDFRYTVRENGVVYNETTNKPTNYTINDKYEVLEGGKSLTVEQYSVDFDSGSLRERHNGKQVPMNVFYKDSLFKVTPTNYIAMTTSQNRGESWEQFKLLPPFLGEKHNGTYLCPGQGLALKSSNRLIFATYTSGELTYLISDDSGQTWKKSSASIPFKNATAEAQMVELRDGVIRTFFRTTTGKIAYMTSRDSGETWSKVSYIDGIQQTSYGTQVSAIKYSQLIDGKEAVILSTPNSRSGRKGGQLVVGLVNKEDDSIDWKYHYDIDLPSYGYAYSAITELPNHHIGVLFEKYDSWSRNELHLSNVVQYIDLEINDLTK
T2 sequence (P62575 54-1035): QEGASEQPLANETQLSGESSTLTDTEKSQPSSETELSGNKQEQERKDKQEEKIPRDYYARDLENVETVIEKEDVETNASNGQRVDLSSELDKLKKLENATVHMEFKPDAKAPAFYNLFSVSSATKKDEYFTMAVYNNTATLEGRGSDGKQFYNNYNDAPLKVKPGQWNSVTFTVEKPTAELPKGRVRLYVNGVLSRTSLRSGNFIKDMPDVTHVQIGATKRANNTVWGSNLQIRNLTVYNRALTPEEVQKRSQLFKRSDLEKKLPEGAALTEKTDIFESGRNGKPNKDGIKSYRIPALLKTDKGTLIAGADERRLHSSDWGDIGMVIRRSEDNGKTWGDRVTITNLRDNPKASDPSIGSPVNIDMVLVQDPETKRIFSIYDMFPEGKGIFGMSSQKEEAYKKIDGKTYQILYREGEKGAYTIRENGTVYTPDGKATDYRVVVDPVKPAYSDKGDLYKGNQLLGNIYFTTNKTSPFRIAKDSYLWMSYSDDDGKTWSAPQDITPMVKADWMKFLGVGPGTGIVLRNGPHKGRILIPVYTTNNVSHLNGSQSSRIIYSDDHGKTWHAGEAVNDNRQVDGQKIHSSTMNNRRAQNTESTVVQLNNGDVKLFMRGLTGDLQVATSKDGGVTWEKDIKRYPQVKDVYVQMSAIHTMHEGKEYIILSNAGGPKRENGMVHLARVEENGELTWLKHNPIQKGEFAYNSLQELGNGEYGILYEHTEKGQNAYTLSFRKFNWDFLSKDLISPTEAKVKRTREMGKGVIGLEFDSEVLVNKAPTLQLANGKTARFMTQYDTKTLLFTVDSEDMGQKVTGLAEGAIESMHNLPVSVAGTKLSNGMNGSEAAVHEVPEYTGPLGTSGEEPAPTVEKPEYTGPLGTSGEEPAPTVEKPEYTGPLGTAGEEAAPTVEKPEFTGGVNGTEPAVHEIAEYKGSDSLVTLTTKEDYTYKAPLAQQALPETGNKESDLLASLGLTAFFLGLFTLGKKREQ

Row | Compound | Percentage of Virus Yield after NAI Treatment, without NA ([1]; NAI 10 µM) | Percentage of Virus Yield after NAI Treatment, without NA ([1]; NAI 20 µM) | Inhibitory Concentration of NAIs against rNanB, HA assay (rNanB [2]) | Inhibitory Concentration of NAIs against rNanB, FL assay (rNanB [3]) | Percentage of Virus Yield after NAI Treatment, with rNanB ([4]; NAI 20 µM) | Inhibitory Concentration of NAIs against rNanA, HA assay (rNanA [5]) | IC50 (rNanA [6]) | spread and yield of the virus in the presence of NanA ([7]; 48 h) | Percentage of Virus Yield after NAI Treatment, with rNanA ([7]; NAI 10 µM) | Percentage of Virus Yield after NAI Treatment, with rNanA ([7]; NAI 20 µM) | further results
1 | COc1cc2oc(-c3ccc(O)cc3O)c(CC=C(C)C)c(=O)c2c(O)c1/C=C/C(C)C [Artocarpin] | 70.2 ± 10.5% | 84.8 ± 15.7% | 10.0 ± 0.0 µM | Not active | 77.1 ± 37.8% | 10.0 ± 0.0 µM | 10 ± 6.3 µM | inhibited | 67.3 ± 25.5% | 44.3 ± 11.0% | –
2 | CC(=O)N[C@H]1[C@H]([C@H](O)[C@H](O)CO)OC(C(=O)O)=C[C@@H]1O [DANA, N-acetyl-2,3-dehydro-2-deoxyneuraminic acid] | 78.9 ± 36.1% | – | – | – | – | 100.0 ± 0.0 µM | – | inhibited | 81.1 ± 27.9% | – | Percentage of Virus Yield after NAI Treatment, without NA ([1]; NAI 50 µM): 34.8 ± 17.4%; Percentage of Virus Yield after NAI Treatment, with rNanB ([4]; NAI 50 µM): 27.4 ± 1.0%; Percentage of Virus Yield after NAI Treatment, with rNanA ([7]; NAI 50 µM): 13.5 ± 8.3%; IC50 [8]: 3.6 ± 0.4 µM
3 | O=C(CCc1ccccc1)C[C@@H]1C[C@@H](c2ccccc2)c2c(cc(/C=C/c3ccccc3)oc2=O)O1 [Katsumadain A, katsumadain A] | 54.9 ± 25.7% | 29.0 ± 15.1% | 5.4 ± 4.0 µM | – | 21.0 ± 4.1% | 3.2 ± 0.0 µM | – | inhibited | 67.3 ± 6.2% | 28.1 ± 13.7% | –
4 | CC(=O)N[C@H]1[C@H]([C@H](O)[C@H](O)CO)O[C@@](Oc2ccc3c(C)cc(=O)oc3c2)(C(=O)O)C[C@@H]1O [MUNANA, 2-(4-methylumbelliferyl)-α-D-N-acetylneuraminic acid sodium salt hydrate] | – | – | – | – | – | – | – | – | – | – | Km (rNanB [9]): 684 µM
5 | CC(=O)N[C@H]1[C@H]([C@H](O)[C@H](O)CO)OC(C(=O)O)=C[C@@H]1N=C(N)N [Zanamivir, zanamivir] | – | – | Not active | Not active | – | Not active | > 100 µM | – | – | – | Percentage of Virus Yield after NAI Treatment, without NA ([1]; NAI 0.1 µM): 4.4 ± 1.5%; Percentage of Virus Yield after NAI Treatment, without NA ([1]; NAI 1 µM): 1.4 ± 1.0%; IC50 (rNanB [3]): > 100 µM; Percentage of Virus Yield after NAI Treatment, with rNanB ([4]; NAI 0.1 µM): 6.2 ± 2.9%; Percentage of Virus Yield after NAI Treatment, with rNanB ([4]; NAI 1 µM): 0.7 ± 0.3%; Inhibitory Concentration of NAIs against rNanA, FL assay (rNanA [6]; rNanA diluted 1:10,000, pH 6.5, MUNANA substrate): Not active; antiviral effect in the presence of rNanA ([7]; 48 h, spread and yield): abolished; Percentage of Virus Yield after NAI Treatment, with rNanA ([7]; NAI 0.1 µM): 109.0 ± 35.5%; Percentage of Virus Yield after NAI Treatment, with rNanA ([7]; NAI 1 µM): 86.5 ± 46.2%
6 | rNanA (Streptococcus pneumoniae R6) | – | – | – | – | – | – | – | – | – | – | Km [10]: 39.70 µM
